Data from the NIST ThermoML archive (doi:10.1007/s10765-011-0995-x).

Experiments:
[1] = refractive index (Na D-line) (dimensionless); xn = mol fraction of the nth substance listed; conditions: 101 kPa, Liquid, Standard Abbe refractometry
[2] = xn = mol fraction of the nth substance listed; conditions: 101 kPa, Liquid; for speed of sound: Pulse-echo method

Cc1ccccc1Cl [2-chlorotoluene] + CCCCCCCCCCO
Conditions | mass density, [2] [kg/m3] | refractive index, [1] | speed of sound, [2] [m/s] | viscosity, [2] [mPa·s]
298.15 K, x1 = 0.0734 | 838.4 | 1.4377 | 1373.9 | 10
298.15 K, x1 = 0.1537 | 852.15 | 1.4413 | 1366.5 | 8.277
298.15 K, x1 = 0.2064 | 861.61 | 1.444 | 1361.3 | 7.283
298.15 K, x1 = 0.2747 | 874.4 | 1.4479 | 1354.2 | 6.13
298.15 K, x1 = 0.345 | 888.32 | 1.4524 | 1346.6 | 5.101
298.15 K, x1 = 0.4107 | 902.06 | 1.4569 | 1339.4 | 4.289
298.15 K, x1 = 0.489 | 919.52 | 1.4628 | 1330.9 | 3.477
298.15 K, x1 = 0.5555 | 935.39 | 1.4685 | 1323.8 | 2.906
298.15 K, x1 = 0.6158 | 950.72 | 1.4741 | 1317.6 | 2.468
298.15 K, x1 = 0.6813 | 968.52 | 1.4806 | 1311.5 | 2.075
298.15 K, x1 = 0.7475 | 987.82 | 1.4878 | 1306 | 1.742
298.15 K, x1 = 0.8205 | 1010.87 | 1.4966 | 1301.2 | 1.446
298.15 K, x1 = 0.884 | 1032.61 | 1.505 | 1298.7 | 1.235
298.15 K, x1 = 0.9469 | 1056.04 | 1.514 | 1298.5 | 1.062
298.15 K, x1 = 1 | 1077.41 | 1.5219 | 1301.2 | 0.943
303.15 K, x1 = 0.0734 | 834.73 | 1.4359 | 1358.4 | 8.289
303.15 K, x1 = 0.1537 | 848.3 | 1.4394 | 1350.5 | 6.862
303.15 K, x1 = 0.2064 | 857.65 | 1.4423 | 1344.9 | 6.042
303.15 K, x1 = 0.2747 | 870.31 | 1.4462 | 1337.3 | 5.103
303.15 K, x1 = 0.345 | 884.08 | 1.4505 | 1329.3 | 4.266
303.15 K, x1 = 0.4107 | 897.72 | 1.4549 | 1321.7 | 3.603
303.15 K, x1 = 0.489 | 915.05 | 1.4608 | 1312.7 | 2.952
303.15 K, x1 = 0.5555 | 930.83 | 1.4664 | 1305.2 | 2.486
303.15 K, x1 = 0.6158 | 946.09 | 1.4719 | 1298.8 | 2.133
303.15 K, x1 = 0.6813 | 963.84 | 1.4784 | 1292.5 | 1.806
303.15 K, x1 = 0.7475 | 983.1 | 1.4855 | 1286.9 | 1.538
303.15 K, x1 = 0.8205 | 1006.13 | 1.4941 | 1282.3 | 1.294
303.15 K, x1 = 0.884 | 1027.9 | 1.5023 | 1280 | 1.124
303.15 K, x1 = 0.9469 | 1051.38 | 1.5111 | 1280.6 | 0.984
303.15 K, x1 = 1 | 1072.83 | 1.5189 | 1284.1 | 0.885
308.15 K, x1 = 0.0734 | 831.1 | 1.4339 | 1339.3 | 6.889
308.15 K, x1 = 0.1537 | 844.55 | 1.4378 | 1330.9 | 5.734
308.15 K, x1 = 0.2064 | 853.84 | 1.4406 | 1324.9 | 5.078
308.15 K, x1 = 0.2747 | 866.4 | 1.4445 | 1316.8 | 4.313
308.15 K, x1 = 0.345 | 880.08 | 1.4489 | 1308.2 | 3.637
308.15 K, x1 = 0.4107 | 893.62 | 1.4534 | 1300 | 3.08
308.15 K, x1 = 0.489 | 910.82 | 1.4592 | 1290.6 | 2.528
308.15 K, x1 = 0.5555 | 926.51 | 1.4648 | 1283.1 | 2.134
308.15 K, x1 = 0.6158 | 941.68 | 1.4702 | 1276.7 | 1.837
308.15 K, x1 = 0.6813 | 959.32 | 1.4767 | 1270.8 | 1.566
308.15 K, x1 = 0.7475 | 978.5 | 1.4839 | 1266.1 | 1.338
308.15 K, x1 = 0.8205 | 1001.49 | 1.4924 | 1262.5 | 1.135
308.15 K, x1 = 0.884 | 1023.23 | 1.5005 | 1261.6 | 0.995
308.15 K, x1 = 0.9469 | 1046.71 | 1.5092 | 1262.2 | 0.879
308.15 K, x1 = 1 | 1068.24 | 1.5169 | 1266.1 | 0.805
